Measured values: patent US8476264B2, “N-(3-(2-amino-6,6-difluoro-4,4A,5,6,7,7A-hexahydro-cyclopenta[E][1,3]oxazin-4-yl)-phenylamides as BACE1 inhibitors” (Hoffmann-La Roche Inc., priority 2011, dated 2013)

Target: T1, BACE1 (Homo sapiens, UniProt P56817)
T1 construct: Human HEK293 cells which are stably transfected with a vector expressing a cDNA of the human APP wt gene (APP695); endogenous in cells; host or cells: HEK293 stably transfected with human APP695 wt
Experiment: Cellular Aβ-lowering assay (Aβ40 ELISA)
Type: cell-based
Settings: HEK293 cells stably expressing human APP wt (APP695); Aβ40 in supernatant after 18-20 hrs; read-out: BACE1 cell act. Aβ40 IC50
Procedure: Cellular Aβ-Lowering Assay:
Human HEK293 cells which are stably transfected with a vector expressing a cDNA of the human APP wt gene (APP695) were used to assess the potency of the compounds in a cellular assay. The cells were seeded in 96-well microtiter plates in cell culture medium (Iscove, plus 10% (v/v) fetal bovine serum, glutamine, penicillin/streptomycin) to about 80% confluence and the compounds were added at a 10× concentration in 1/10 volume of medium without FCS containing 8% DMSO (final concentration of DMSO was kept at 0.8% v/v). After 18-20 hrs incubation at 37° C. and 5% CO2 in a humidified incubator the culture supernatant was harvested for the determination of Aβ40 concentrations. 96 well ELISA plates (e.g., Nunc MaxiSorb) were coated with monoclonal antibody which specifically recognize the C-terminal end of Aβ40 (Brockhaus et al., NeuroReport 9, 1481-1486; 1998). After blocking of non-specific binding sites with e.g. 1% BSA and washing, the culture supernatants were added in suitable dilutions together with a horseradish peroxidase-coupled Aβ detection antibody (e.g., antibody 4G8, Senetek, Maryland Heights, Mo.) and incubated for 5 to 7 hrs. Subsequently the wells of the microtiter plate were washed extensively with Tris-buffered saline containing 0.05% Tween 20 and the assay was developed with tetramethylbenzidine/H2O2 in citric acid buffer. After stopping the reaction with one volume 1 N H2SO4 the reaction was measured in an ELISA reader at 450 nm wavelength. The concentrations of Aβ in the culture supernatants were calculated from a standard curve obtained with known amounts of pure Aβ peptide.

T1 sequence (P56817 46-501): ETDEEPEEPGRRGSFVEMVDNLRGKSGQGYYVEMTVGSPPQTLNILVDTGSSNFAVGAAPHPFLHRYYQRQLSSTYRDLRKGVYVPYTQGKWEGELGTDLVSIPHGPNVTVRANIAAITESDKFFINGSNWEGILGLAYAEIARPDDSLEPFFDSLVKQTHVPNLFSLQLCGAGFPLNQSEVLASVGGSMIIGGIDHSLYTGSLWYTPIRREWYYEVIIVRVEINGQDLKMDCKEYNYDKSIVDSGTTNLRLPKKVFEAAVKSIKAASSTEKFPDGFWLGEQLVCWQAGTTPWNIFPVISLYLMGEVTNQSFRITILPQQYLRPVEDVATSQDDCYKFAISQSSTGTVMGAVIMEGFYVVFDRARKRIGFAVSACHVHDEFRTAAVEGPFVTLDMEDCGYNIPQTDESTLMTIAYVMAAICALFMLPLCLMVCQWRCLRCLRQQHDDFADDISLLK

SMILES | IC50 [nM]
NC1=N[C@](CF)(c2cc(NC(=O)c3ccc(Cl)cn3)ccc2F)[C@H]2CC(F)(F)C[C@H]2O1 [Example 4, 5-Chloro-pyridine-2-carboxylic acid [(S)-3-((1R,2R)-2-amino-6,6-difluoro-4-fluoromethyl-4,4a,5,6,7,7a-hexahydro-cyclopenta[e][1,3]oxazin-4-yl)-4-fluoro-phenyl]-amide] | 2
CC#CCOc1ccc(C(=O)Nc2ccc(F)c([C@@]3(CF)N=C(N)O[C@@H]4CC(F)(F)C[C@@H]43)c2)nc1 [Example 5, 5-But-2-ynyloxy-pyridine-2-carboxylic acid [(S)-3-((1R,2R)-2-amino-6,6-difluoro-4-fluoromethyl-4,4a,5,6,7,7a-hexahydro-cyclopenta[e][1,3]oxazin-4-yl)-4-fluoro-phenyl]-amide] | 0.8
NC1=N[C@](CF)(c2cc(NC(=O)c3ccc(OCC(F)(F)C(F)(F)F)cn3)ccc2F)[C@H]2CC(F)(F)C[C@H]2O1 [Example 10, 5-(2,2,3,3,3-Pentafluoro-propoxy)-pyridine-2-carboxylic acid [(S)-3-((1R,2R)-2-amino-6,6-difluoro-4-fluoromethyl-4,4a,5,6,7,7a-hexahydro-cyclopenta[e][1,3]oxazin-4-yl)-4-fluoro-phenyl]-amide] | 43
NC1=N[C@](CF)(c2cc(NC(=O)c3ccc(OCC(F)(F)C(F)F)cn3)ccc2F)[C@H]2CC(F)(F)C[C@H]2O1 [Example 11, 5-(2,2,3,3-Tetrafluoro-propoxy)-pyridine-2-carboxylic acid [(S)-3-((1R,2R)-2-amino-6,6-difluoro-4-fluoromethyl-4,4a,5,6,7,7a-hexahydro-cyclopenta[e][1,3]oxazin-4-yl)-4-fluoro-phenyl]-amide] | 14
NC1=N[C@](CF)(c2cc(NC(=O)c3ccc(OCC4CC4)cn3)ccc2F)[C@H]2CC(F)(F)C[C@H]2O1 [Example 12, 5-Cyclopropylmethoxy-pyridine-2-carboxylic acid [(S)-3-((1R,2R)-2-amino-6,6-difluoro-4-fluoromethyl-4,4a,5,6,7,7a-hexahydro-cyclopenta[e][1,3]oxazin-4-yl)-4-fluoro-phenyl]-amide] | 8.6
NC1=N[C@](CF)(c2cc(NC(=O)c3ccc(OC(F)F)cn3)ccc2F)[C@H]2CC(F)(F)C[C@H]2O1 [Example 13, 5-Difluoromethoxy-pyridine-2-carboxylic acid [(S)-3-((1R,2R)-2-amino-6,6-difluoro-4-fluoromethyl-4,4a,5,6,7,7a-hexahydro-cyclopenta[e][1,3]oxazin-4-yl)-4-fluoro-phenyl]-amide] | 3.5
NC1=N[C@](CF)(c2cc(NC(=O)c3ccc(C(F)(F)F)cn3)ccc2F)[C@H]2CC(F)(F)C[C@H]2O1 [Example 15, 5-Trifluoromethyl-pyridine-2-carboxylic acid [(S)-3-((1R,2R)-2-amino-6,6-difluoro-4-fluoromethyl-4,4a,5,6,7,7a-hexahydro-cyclopenta[e][1,3]oxazin-4-yl)-4-fluoro-phenyl]-amide] | 2.8
N#Cc1cnc(C(=O)Nc2ccc(F)c([C@@]3(CF)N=C(N)O[C@@H]4CC(F)(F)C[C@@H]43)c2)c(Cl)c1 [Example 19, 3-Chloro-5-cyano-pyridine-2-carboxylic acid [(S)-3-((1R,2R)-2-amino-6,6-difluoro-4-fluoromethyl-4,4a,5,6,7,7a-hexahydro-cyclopenta[e][1,3]oxazin-4-yl)-4-fluoro-phenyl]-amide] | 5.5
NC1=N[C@](CF)(c2cc(NC(=O)c3cnc(OC(F)F)cn3)ccc2F)[C@H]2CC(F)(F)C[C@H]2O1 [Example 21, 5-Difluoromethoxy-pyrazine-2-carboxylic acid [(S)-3-((1R,2R)-2-amino-6,6-difluoro-4-fluoromethyl-4,4a,5,6,7,7a-hexahydro-cyclopenta[e][1,3]oxazin-4-yl)-4-fluoro-phenyl]-amide] | 0.9
NC1=N[C@](CF)(c2cc(NC(=O)c3cnc(OCC(F)(F)F)cn3)ccc2F)[C@H]2CC(F)(F)C[C@H]2O1 [Example 22, 5-(2,2,2-Trifluoro-ethoxy)-pyrazine-2-carboxylic acid [(S)-3-((1R,2R)-2-amino-6,6-difluoro-4-fluoromethyl-4,4a,5,6,7,7a-hexahydro-cyclopenta[e][1,3]oxazin-4-yl)-4-fluoro-phenyl]-amide] | 2.5
NC1=N[C@](CF)(c2cc(NC(=O)c3cnc(OCC(F)F)cn3)ccc2F)[C@H]2CC(F)(F)C[C@H]2O1 [Example 23, 5-(2,2-Difluoro-ethoxy)-pyrazine-2-carboxylic acid [(S)-3-((1R,2R)-2-amino-6,6-difluoro-4-fluoromethyl-4,4a,5,6,7,7a-hexahydro-cyclopenta[e][1,3]oxazin-4-yl)-4-fluoro-phenyl]-amide] | 7.8

Continued, values first:

IC50 [nM] | SMILES
1.7 | NC1=N[C@](CF)(c2cc(NC(=O)c3ncc(Cl)cc3Cl)ccc2F)[C@H]2CC(F)(F)C[C@H]2O1 [Example 6, 3,5-Dichloro-pyridine-2-carboxylic acid [(S)-3-((1R,2R)-2-amino-6,6-difluoro-4-fluoromethyl-4,4a,5,6,7,7a-hexahydro-cyclopenta[e][1,3]oxazin-4-yl)-4-fluoro-phenyl]-amide]
16.9 | NC1=N[C@](CF)(c2cc(NC(=O)c3ncc(F)cc3F)ccc2F)[C@H]2CC(F)(F)C[C@H]2O1 [Example 8, 3,5-Difluoro-pyridine-2-carboxylic acid [(S)-3-((1R,2R)-2-amino-6,6-difluoro-4-fluoromethyl-4,4a,5,6,7,7a-hexahydro-cyclopenta[e][1,3]oxazin-4-yl)-4-fluoro-phenyl]-amide]
17 | NC1=N[C@](CF)(c2cc(NC(=O)c3ccc(OCC(F)(F)F)cn3)ccc2F)[C@H]2CC(F)(F)C[C@H]2O1 [Example 9, 5-(2,2,2-Trifluoro-ethoxy)-pyridine-2-carboxylic acid [(S)-3-((1R,2R)-2-amino-6,6-difluoro-4-fluoromethyl-4,4a,5,6,7,7a-hexahydro-cyclopenta[e][1,3]oxazin-4-yl)-4-fluoro-phenyl]-amide]
23 | NC1=N[C@](CF)(c2cc(NC(=O)c3ccc(OCC(F)F)cn3)ccc2F)[C@H]2CC(F)(F)C[C@H]2O1 [Example 14, 5-(2,2-Difluoro-ethoxy)-pyridine-2-carboxylic acid [(S)-3-((1R,2R)-2-amino-6,6-difluoro-4-fluoromethyl-4,4a,5,6,7,7a-hexahydro-cyclopenta[e][1,3]oxazin-4-yl)-4-fluoro-phenyl]-amide]
0.8 | NC1=N[C@](CF)(c2cc(NC(=O)c3ncc(C(F)(F)F)cc3Cl)ccc2F)[C@H]2CC(F)(F)C[C@H]2O1 [Example 16, 3-Chloro-5-trifluoromethyl-pyridine-2-carboxylic acid [(S)-3-((1R,2R)-2-amino-6,6-difluoro-4-fluoromethyl-4,4a,5,6,7,7a-hexahydro-cyclopenta[e][1,3]oxazin-4-yl)-4-fluoro-phenyl]-amide]
4.1 | NC1=N[C@](CF)(c2cc(NC(=O)c3ncc(C(F)(F)F)cc3F)ccc2F)[C@H]2CC(F)(F)C[C@H]2O1 [Example 17, 3-Fluoro-5-trifluoromethyl-pyridine-2-carboxylic acid [(S)-3-((1R,2R)-2-amino-6,6-difluoro-4-fluoromethyl-4,4a,5,6,7,7a-hexahydro-cyclopenta[e][1,3]oxazin-4-yl)-4-fluoro-phenyl]-amide]
15 | NC1=N[C@](CF)(c2cc(NC(=O)c3cnc(OCC4CC4)cn3)ccc2F)[C@H]2CC(F)(F)C[C@H]2O1 [Example 25, 5-Cyclopropylmethoxy-pyrazine-2-carboxylic acid [(S)-3-((1R,2R)-2-amino-6,6-difluoro-4-fluoromethyl-4,4a,5,6,7,7a-hexahydro-cyclopenta[e][1,3]oxazin-4-yl)-4-fluoro-phenyl]-amide]
3.5 | NC1=N[C@](CF)(c2cc(NC(=O)c3cnc(OCF)cn3)ccc2F)[C@H]2CC(F)(F)C[C@H]2O1 [Example 26, 5-Fluoromethoxy-pyrazine-2-carboxylic acid [(S)-3-((1R,2R)-2-amino-6,6-difluoro-4-fluoromethyl-4,4a,5,6,7,7a-hexahydro-cyclopenta[e][1,3]oxazin-4-yl)-4-fluoro-phenyl]-amide]
660 | NC1=N[C@](CF)(c2cc(NC(=O)c3cnc(Cl)cn3)ccc2F)[C@H]2CC(F)(F)C[C@H]2O1 [Example 27, 5-Chloro-pyrazine-2-carboxylic acid [(S)-3-((1R,2R)-2-amino-6,6-difluoro-4-fluoromethyl-4,4a,5,6,7,7a-hexahydro-cyclopenta[e][1,3]oxazin-4-yl)-4-fluoro-phenyl]-amide]
